By Kd is commonly meant the concentration at which binding is half-saturated. A lower Kd goes with higher affinity.

In the experiment the target is epidermal growth factor receptor (EGFR) (Homo sapiens, UniProt P00533). The experiment is described as follows: SPR. It is filed as binding.
Chain of epidermal growth factor receptor (EGFR) (P00533 25-1210): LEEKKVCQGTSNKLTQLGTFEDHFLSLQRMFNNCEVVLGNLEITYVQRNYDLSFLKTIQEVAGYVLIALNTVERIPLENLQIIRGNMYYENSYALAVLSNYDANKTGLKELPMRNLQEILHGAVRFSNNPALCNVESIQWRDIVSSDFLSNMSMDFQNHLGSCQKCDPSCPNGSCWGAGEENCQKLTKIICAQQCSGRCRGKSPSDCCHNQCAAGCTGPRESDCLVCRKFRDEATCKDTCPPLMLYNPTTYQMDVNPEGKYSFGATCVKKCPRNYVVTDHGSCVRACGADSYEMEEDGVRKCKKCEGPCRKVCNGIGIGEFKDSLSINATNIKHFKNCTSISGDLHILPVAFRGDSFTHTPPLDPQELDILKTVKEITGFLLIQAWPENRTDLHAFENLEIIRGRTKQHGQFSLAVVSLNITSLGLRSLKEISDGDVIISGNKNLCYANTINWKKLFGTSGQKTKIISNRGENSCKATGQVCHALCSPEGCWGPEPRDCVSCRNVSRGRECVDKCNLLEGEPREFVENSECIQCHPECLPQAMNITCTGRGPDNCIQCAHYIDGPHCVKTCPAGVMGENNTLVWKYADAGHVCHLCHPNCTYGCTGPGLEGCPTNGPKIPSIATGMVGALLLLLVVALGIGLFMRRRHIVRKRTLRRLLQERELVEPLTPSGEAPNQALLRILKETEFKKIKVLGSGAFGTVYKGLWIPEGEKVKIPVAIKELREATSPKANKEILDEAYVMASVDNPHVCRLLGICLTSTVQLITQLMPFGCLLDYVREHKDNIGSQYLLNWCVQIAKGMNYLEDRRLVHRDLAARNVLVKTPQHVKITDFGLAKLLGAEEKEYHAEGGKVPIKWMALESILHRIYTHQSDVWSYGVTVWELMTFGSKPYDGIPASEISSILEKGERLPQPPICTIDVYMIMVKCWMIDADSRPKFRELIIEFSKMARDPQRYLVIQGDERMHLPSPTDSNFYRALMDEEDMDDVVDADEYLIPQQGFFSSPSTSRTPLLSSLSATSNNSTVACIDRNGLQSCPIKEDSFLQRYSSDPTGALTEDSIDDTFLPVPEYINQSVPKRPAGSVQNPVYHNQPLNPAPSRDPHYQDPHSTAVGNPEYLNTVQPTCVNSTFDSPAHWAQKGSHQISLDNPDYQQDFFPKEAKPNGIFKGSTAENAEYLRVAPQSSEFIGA

Compound `O=c1c(-c2ccc(O[C@@H]3O[C@H](CO)[C@@H](O)[C@H](O)[C@H]3O)cc2)coc2cc(O)cc(O)c12` [Sop, Sophoricoside] had a Kd of about 56.1 µM.
